Measured values: patent publication US11198696B2, “Substituted xanthines as inhibitors of transient receptor potential cation channel subfamily c, member 5 activity” (Boehringer Ingelheim International GmbH, priority 2018, dated 2021)

Target: T1, TRPC5 (Homo sapiens, UniProt Q9UL62)
T1 construct: expressed in transfected cells; host or cells: HEK293 TREx cells, inducible TRPC5 expression, induced 20-48 hours
T1 sequence (Q9UL62 1-973): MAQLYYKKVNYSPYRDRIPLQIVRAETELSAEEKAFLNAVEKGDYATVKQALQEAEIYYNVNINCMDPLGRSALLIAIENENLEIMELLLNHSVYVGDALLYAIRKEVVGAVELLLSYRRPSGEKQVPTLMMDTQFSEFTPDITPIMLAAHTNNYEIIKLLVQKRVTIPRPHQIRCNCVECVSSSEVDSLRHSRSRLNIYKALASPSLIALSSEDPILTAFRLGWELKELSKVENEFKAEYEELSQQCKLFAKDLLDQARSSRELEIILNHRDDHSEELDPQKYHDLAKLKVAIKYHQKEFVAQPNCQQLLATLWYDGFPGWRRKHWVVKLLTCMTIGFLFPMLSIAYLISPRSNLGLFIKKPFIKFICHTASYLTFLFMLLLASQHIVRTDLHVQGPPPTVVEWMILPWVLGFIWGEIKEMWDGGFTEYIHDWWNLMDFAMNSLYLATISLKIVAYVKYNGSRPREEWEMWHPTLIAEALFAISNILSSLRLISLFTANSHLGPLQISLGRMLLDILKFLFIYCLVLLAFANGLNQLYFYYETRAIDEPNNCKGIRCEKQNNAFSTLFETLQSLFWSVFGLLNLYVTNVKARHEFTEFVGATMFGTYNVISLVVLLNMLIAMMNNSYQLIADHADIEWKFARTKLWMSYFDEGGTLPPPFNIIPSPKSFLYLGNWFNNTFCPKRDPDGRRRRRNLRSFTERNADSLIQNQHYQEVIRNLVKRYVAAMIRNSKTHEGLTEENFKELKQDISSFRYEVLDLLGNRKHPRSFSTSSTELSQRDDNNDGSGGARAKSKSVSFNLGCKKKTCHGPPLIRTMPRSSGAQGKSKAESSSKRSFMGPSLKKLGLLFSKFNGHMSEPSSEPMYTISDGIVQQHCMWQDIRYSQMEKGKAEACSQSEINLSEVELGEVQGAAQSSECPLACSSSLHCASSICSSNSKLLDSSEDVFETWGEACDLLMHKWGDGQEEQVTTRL
Experiment: Assay A: Determination of TRPC5-Inhibition (whole-cell patch clamp)
Assay type: cell-based
Conditions: compounds of the present invention, TRPC5-expressing HEK293 TREx cells, LaCl3-activated current
Text: Assay A: Determination of TRPC5-Inhibition
Patch clamp experiments permit the detection of currents through the TRPC5 channel in a cell line. In normal whole-cell patch clamp recordings, a glass electrode is brought into contact with a single cell and a high-resistance (gigaohm) seal is established with the cell membrane. The membrane is then ruptured to achieve the whole-cell configuration, permitting control of the voltage of the cell membrane and measurement of currents flowing across the membrane using the amplifier attached to the electrode and resulting in the replacement of cytoplasm with the pipette solution. A perfusion system permits control of the extracellular solution, including the addition of blockers and activators of the current. The current can be activated by including 1.4 μM free Ca2+ in the pipette (intracellular) solution, and 80 μM LaCl3 in the extracellular solution.
TRPC5 cells were induced 20-48 hours, removed from growth plates, and replated at low density (to attain good single-cell physical separation) on glass coverslips for measurement. In some cases, cells were grown in low density overnight on glass coverslips. Patch clamp recordings were made in the whole-cell mode with a holding potential of −40 mV. Every 5 seconds, a voltage ramp was applied from −120 to +100 mV, 400 ms in duration. Currents elicited were quantified at −80 mV and +80 mV. The internal solution consisted of 140 mM cesium aspartate, 10 mM HEDTA, 2 mM CaCl2, 2.27 mM MgCl2 and 10 mM HEPES, pH 7.2, with 1,400 nM calculated free Ca2+. The external solution consisted of 150 mM NaCl, 4.5 mM 15 KCl, 1 mM MgCl2, 2 mM CaCl2, 10 mM HEPES, 10 mM glucose, 1 mM EGTA, pH 7.4. Upon addition of LaCl3, TRPC5 current was induced only in TRPC5-expressing cells and not in parental HEK293 TREx cells. Removal of the LaCh stimulus causes most of the current to go away. Potential blockers were tested for ability to block both inward and outward currents in the continued presence of LaCl3.
IC50 of a compound of the invention was estimated by testing the compound 500 nM. […] Compounds blocking 50% or more at 500 nM are retested at multiple concentrations, and the % block is fitted by standard equations to determine IC50 accurately, using a 5/6 point concentration-response experiment.

SMILES | IC50
CCn1c(=O)n(CCCO)c(=O)c2c1nc(-c1ccc(O[C@H]3CCC[C@@H]3C)nc1C)n2Cc1ccc(Cl)cc1 (racemic) [Example 21] | 0.249 nM
Cc1nc(OC2CCC2C)ccc1-c1nc2c(c(=O)n(CCCO)c(=O)n2C(C)C)n1Cc1ccc(F)cc1 (centres unmarked) [Example 1] | < 0.032 nM
Cc1nc(OC2CCCCC2)ccc1-c1nc2c(c(=O)n(CCCO)c(=O)n2C(C)C)n1Cc1ccccc1 [Example 2] | 0.095 nM
CCn1c(=O)n(CCCO)c(=O)c2c1nc(-c1ccc(OC3CCC3C)nc1C)n2Cc1ccc(Cl)cc1 (centres unmarked) [Example 3] | 0.099 nM
Cc1nc(OC2CCCC2)ccc1-c1nc2c(c(=O)n(CCCO)c(=O)n2C(C)C)n1Cc1ccc(F)cc1 [Example 4] | < 0.1 nM
Cc1nc(OC2CC(C)C2)ccc1-c1nc2c(c(=O)n(CCCO)c(=O)n2C(C)C)n1Cc1ccc(F)cc1 (centres unmarked) [Example 5] | < 0.1 nM
Cc1nc(OC2CCC23CCC3)ccc1-c1nc2c(c(=O)n(CCCO)c(=O)n2C(C)C)n1Cc1ccccc1 (centres unmarked) [Example 6] | < 0.1 nM
CCn1c(=O)n(CCCO)c(=O)c2c1nc(-c1ccc(OC3CC4CCC3C4)nc1C)n2Cc1ccc(F)cc1 (centres unmarked) [Example 7] | 0.104 nM
Cc1nc(OC2CCCC2)ccc1-c1nc2c(c(=O)n(CCCO)c(=O)n2C(C)C)n1Cc1ccccc1 [Example 9] | 0.13 nM
CCn1c(=O)n(CCCO)c(=O)c2c1nc(-c1ccc(OC3CCC3C)nc1C(F)(F)F)n2Cc1ccc(Cl)cc1 (centres unmarked) [Example 10] | 0.15 nM
CCn1c(=O)n(CCCO)c(=O)c2c1nc(-c1ccc(OC3CCC3(C)C)nc1C)n2Cc1ccc(F)cc1 (centres unmarked) [Example 11] | 0.163 nM
CCn1c(=O)n(CCCO)c(=O)c2c1nc(-c1ccc(OC3CCC3C)nc1C(F)(F)F)n2Cc1ccccc1 (centres unmarked) [Example 12] | 0.171 nM
CCn1c(=O)n(CCCO)c(=O)c2c1nc(-c1cc(F)c(OC3CCC3)nc1C)n2Cc1ccc(F)cc1 [Example 13] | 0.174 nM
CCn1c(=O)n(CCCO)c(=O)c2c1nc(-c1ccc(OC3CCC3C)nc1C)n2Cc1ccc(Br)cc1 (centres unmarked) [Example 14] | 0.178 nM
CCn1c(=O)n(CCCO)c(=O)c2c1nc(-c1ccc(OC3CCC3C)nc1C(F)(F)F)n2Cc1ccc(F)cc1 (centres unmarked) [Example 15] | 0.184 nM
Cc1nc(OC2CCC2)ccc1-c1nc2c(c(=O)n(CCCO)c(=O)n2C2CCC2)n1Cc1ccccc1 [Example 16] | 0.19 nM
CCn1c(=O)n(CCCO)c(=O)c2c1nc(-c1ccc(OC3CC(C)C3)nc1C)n2Cc1ccc(Cl)cc1 (centres unmarked) [Example 17] | 0.199 nM
CCn1c(=O)n(CCCO)c(=O)c2c1nc(-c1ccc(OC3CC(C)C3)nc1C)n2Cc1ccc(F)cc1 (centres unmarked) [Example 18] | 0.207 nM
Cc1nc(OC2CCC2C)ccc1-c1nc2c(c(=O)n(CCCO)c(=O)n2C(C)C)n1Cc1ccccc1 (centres unmarked) [Example 19] | 0.236 nM
CCC(C)n1c(=O)n(CCCO)c(=O)c2c1nc(-c1ccc(OC3CC(C)C3)nc1C)n2Cc1ccccc1 (centres unmarked) [Example 20] | 0.246 nM
Cc1nc(OC2CC=CC2)ccc1-c1nc2c(c(=O)n(CCCO)c(=O)n2C(C)C)n1Cc1ccccc1 [Example 22] | 0.265 nM
CCn1c(=O)n(CCCO)c(=O)c2c1nc(-c1ccc(OC3CCCC3)nc1C)n2Cc1ccc(Cl)cc1 [Example 23] | 0.275 nM
CCn1c(=O)n(CCCO)c(=O)c2c1nc(-c1ccc(OC3CC(C)(C)C3)nc1C)n2Cc1ccc(F)cc1 [Example 24] | 0.281 nM
Cc1nc(OC2CC(F)(F)C2)ccc1-c1nc2c(c(=O)n(CCCO)c(=O)n2C(C)C)n1Cc1ccc(F)cc1 [Example 25] | 0.312 nM
Cc1nc(OC2CC(C)C2)ccc1-c1nc2c(c(=O)n(CCCO)c(=O)n2C(C)C)n1Cc1ccccc1 (centres unmarked) [Example 26] | < 0.32 nM

SMILES | IC50
CCn1c(=O)n(CCCO)c(=O)c2c1nc(-c1ccc(O[C@H]3C[C@@H](C)C3)nc1C)n2Cc1ccccc1 [Example 27] | 0.402 nM
CCn1c(=O)n(CCCO)c(=O)c2c1nc(-c1ccc(O[C@H]3C[C@H](C)C3)nc1C)n2Cc1ccccc1 [Example 28] | 0.917 nM
CCn1c(=O)n(CCCO)c(=O)c2c1nc(-c1ccc(OC3CCCCC3)nc1C)n2Cc1ccc(F)cc1 [Example 29] | 0.403 nM
Cc1nc(OC2CCC2)ccc1-c1nc2c(c(=O)n(CCCO)c(=O)n2C(C)C)n1Cc1ccccc1 [Example 30] | 0.426 nM
CCn1c(=O)n(CCCO)c(=O)c2c1nc(-c1ccc(OC3CCC3(C)C)nc1C)n2Cc1ccccc1 (centres unmarked) [Example 31] | 0.431 nM
CCn1c(=O)n(CCCO)c(=O)c2c1nc(-c1ccc(OC3CC(C)(C)C3)nc1C)n2Cc1ccccc1 [Example 32] | 0.46 nM
Cc1nc(OC2CCC2)ccc1-c1nc2c(c(=O)n(CCCO)c(=O)n2C(C)C)n1Cc1ccc(F)cc1 [Example 33] | 0.477 nM
CCn1c(=O)n(CCCO)c(=O)c2c1nc(-c1ccc(OC3CC(C)C3)nc1C)n2Cc1ccccc1 (centres unmarked) [Example 34] | 0.485 nM
CCn1c(=O)n(CCCO)c(=O)c2c1nc(-c1ccc(OC3CCC(C(F)(F)F)CC3)nc1C)n2Cc1ccc(F)cc1 (centres unmarked) [Example 35] | 0.531 nM
CCn1c(=O)n(CCCO)c(=O)c2c1nc(-c1ccc(OC3CCC3)nc1C)n2Cc1ccc(Cl)cc1 [Example 36] | 0.551 nM
CCC(C)n1c(=O)n(CCCO)c(=O)c2c1nc(-c1ccc(OC3CCCC3)nc1C)n2Cc1ccccc1 (centres unmarked) [Example 37] | 0.603 nM
CCn1c(=O)n(CCCO)c(=O)c2c1nc(-c1ccc(OC3CCC3)nc1)n2Cc1ccc(Br)cc1 [Example 38] | 0.613 nM
CCn1c(=O)n(CCCO)c(=O)c2c1nc(-c1cc(F)c(OC3CCC3)nc1C)n2Cc1ccccc1 [Example 39] | 0.628 nM
CCn1c(=O)n(CCCO)c(=O)c2c1nc(-c1ccc(OC3CCC3C)nc1)n2Cc1ccc(Cl)cc1 (centres unmarked) [Example 40] | 0.643 nM
CCn1c(=O)n(CCCO)c(=O)c2c1nc(-c1ccc(OC3CCC3C)nc1C)n2Cc1ccc(F)cc1 (centres unmarked) [Example 41] | 0.688 nM
CCC(C)n1c(=O)n(CCCO)c(=O)c2c1nc(-c1ccc(OC3CCC3)nc1C)n2Cc1ccccc1 (centres unmarked) [Example 42] | 0.713 nM
Cc1nc(OC2CC(F)(F)C2)ccc1-c1nc2c(c(=O)n(CCCO)c(=O)n2C(C)C)n1Cc1ccccc1 [Example 43] | 0.732 nM
CCn1c(=O)n(CCCO)c(=O)c2c1nc(-c1ccc(OC3CCCC3)nc1C)n2Cc1ccc(F)cc1 [Example 44] | 0.743 nM
CCn1c(=O)n(CCCO)c(=O)c2c1nc(-c1ccc(OC3CC=CC3)nc1C)n2Cc1ccc(F)cc1 [Example 45] | 0.75 nM
CCn1c(=O)n(CCCO)c(=O)c2c1nc(-c1ccc(OC3CCC3)nc1)n2Cc1ccc(SC(F)(F)F)cc1 [Example 46] | 0.812 nM
CCn1c(=O)n(CCCO)c(=O)c2c1nc(-c1ccc(OC3CC(F)(F)C3)nc1C)n2Cc1ccc(F)cc1 [Example 47] | 0.859 nM
CCn1c(=O)n(CCCO)c(=O)c2c1nc(-c1ccc(OC3CCC3)nc1)n2Cc1ccc(Cl)cc1 [Example 48] | 0.873 nM
CCn1c(=O)n(CCCO)c(=O)c2c1nc(-c1ccc(OC3CCC3)nc1)n2Cc1ccc(C2CC2)cc1 [Example 49] | 1.01 nM
CCn1c(=O)n(CCCO)c(=O)c2c1nc(-c1ccc(OC3CCC3)nc1C)n2Cc1ccc(F)cc1 [Example 50] | 1.16 nM
CCn1c(=O)n(CCCO)c(=O)c2c1nc(-c1ccc(OC3CCC3C)nc1)n2Cc1ccc(F)cc1 (centres unmarked) [Example 51] | 1.36 nM
